Experimental data as given in the NIST ThermoML archive (doi:10.1016/j.jct.2018.08.035).

Test: xn = mol fraction of the nth substance listed
Conditions: 100 kPa, Liquid, Vibrating tube method

CCC(O)CC [3-pentanol] + C[N+](=O)[O-]
Conditions	mass density [kg/m3]
289.95 K, x1 = 0.3	1001.59
289.95 K, x1 = 0.325	997.479
289.95 K, x1 = 0.382	989.628
289.95 K, x1 = 0.414	986.685
289.95 K, x1 = 0.486	972.227
289.95 K, x1 = 0.488	969.425
289.95 K, x1 = 0.546	945.729
289.95 K, x1 = 0.573	926.782
289.95 K, x1 = 0.587	917.014
289.95 K, x1 = 0.615	902.235
289.96 K, x1 = 0.246	1008.64
289.96 K, x1 = 0.338	995.659
289.96 K, x1 = 0.363	992.594
289.96 K, x1 = 0.407	986.452
290.05 K, x1 = 0.266	1004.43
290.05 K, x1 = 0.325	996.695
290.05 K, x1 = 0.573	925.737
290.05 K, x1 = 0.587	916.65
290.06 K, x1 = 0.246	1008.03
290.06 K, x1 = 0.275	1005.08
290.06 K, x1 = 0.3	1000.6
290.06 K, x1 = 0.338	994.875
290.06 K, x1 = 0.363	991.838
290.06 K, x1 = 0.382	988.825
290.06 K, x1 = 0.407	985.25
290.06 K, x1 = 0.414	985.261
290.06 K, x1 = 0.486	971.285
290.06 K, x1 = 0.488	967.998
290.06 K, x1 = 0.546	944.207
290.06 K, x1 = 0.615	897.967
290.15 K, x1 = 0.246	1007.82
290.15 K, x1 = 0.266	1003.31
290.15 K, x1 = 0.275	1003.66
290.15 K, x1 = 0.3	999.813
290.15 K, x1 = 0.325	995.904
290.15 K, x1 = 0.363	990.879
290.15 K, x1 = 0.382	987.982
290.15 K, x1 = 0.407	984.083
290.15 K, x1 = 0.414	984.081
290.15 K, x1 = 0.486	970.021
290.15 K, x1 = 0.488	967.145
290.15 K, x1 = 0.546	942.592
290.15 K, x1 = 0.573	923.887
290.15 K, x1 = 0.587	916.211
290.15 K, x1 = 0.615	897.189
290.15 K, x1 = 0.629	888.276
290.16 K, x1 = 0.338	994.25
290.25 K, x1 = 0.246	1007.68
290.25 K, x1 = 0.266	1002.5
290.25 K, x1 = 0.275	1002.12
290.25 K, x1 = 0.3	999.25
290.25 K, x1 = 0.325	995.232
290.25 K, x1 = 0.363	990.096
290.25 K, x1 = 0.382	987.239
290.25 K, x1 = 0.407	983.056
290.25 K, x1 = 0.414	982.887
290.25 K, x1 = 0.486	968.242
290.25 K, x1 = 0.488	965.719
290.25 K, x1 = 0.546	941.205
290.25 K, x1 = 0.573	924.811
290.25 K, x1 = 0.587	914.293
290.25 K, x1 = 0.615	896.918
290.26 K, x1 = 0.338	993.457
290.35 K, x1 = 0.246	1007.56
290.35 K, x1 = 0.3	998.453
290.35 K, x1 = 0.338	992.611
290.35 K, x1 = 0.363	989.111
290.35 K, x1 = 0.382	986.379
290.35 K, x1 = 0.407	982.318
290.35 K, x1 = 0.414	981.695
290.35 K, x1 = 0.486	966.969
290.35 K, x1 = 0.546	939.634
290.35 K, x1 = 0.573	919.469
290.35 K, x1 = 0.587	912.051
290.35 K, x1 = 0.615	896.796
290.36 K, x1 = 0.266	1001.61
290.36 K, x1 = 0.275	1000.44
290.36 K, x1 = 0.325	994.188
290.36 K, x1 = 0.488	964.297
290.45 K, x1 = 0.246	1007.43
290.45 K, x1 = 0.275	998.669
290.45 K, x1 = 0.363	988.212
290.45 K, x1 = 0.382	985.548
290.45 K, x1 = 0.407	981.549
290.45 K, x1 = 0.414	980.935
290.45 K, x1 = 0.486	965.653
290.45 K, x1 = 0.488	962.338
290.45 K, x1 = 0.546	938.388
290.45 K, x1 = 0.573	918.938
290.45 K, x1 = 0.587	911.848
290.45 K, x1 = 0.615	891.445
290.46 K, x1 = 0.266	1000.04
290.46 K, x1 = 0.3	997.097
290.46 K, x1 = 0.325	993.308
290.46 K, x1 = 0.338	991.804
290.55 K, x1 = 0.246	1007.31
290.55 K, x1 = 0.363	987.195
290.55 K, x1 = 0.382	984.63
290.55 K, x1 = 0.407	980.769
290.55 K, x1 = 0.414	980.125
290.55 K, x1 = 0.486	963.548
290.55 K, x1 = 0.546	936.105
290.55 K, x1 = 0.573	918.841
290.55 K, x1 = 0.587	907.457
290.55 K, x1 = 0.615	891.334
290.56 K, x1 = 0.266	999.223
290.56 K, x1 = 0.275	997.256
290.56 K, x1 = 0.3	995.648
290.56 K, x1 = 0.325	992.372
290.56 K, x1 = 0.338	990.851
290.56 K, x1 = 0.488	960.605
290.65 K, x1 = 0.246	1007.18
290.65 K, x1 = 0.275	996.456
290.65 K, x1 = 0.363	986.092
290.65 K, x1 = 0.382	983.656
290.65 K, x1 = 0.407	979.953
290.65 K, x1 = 0.414	979.293
290.65 K, x1 = 0.486	962.186
290.65 K, x1 = 0.488	958.456
290.65 K, x1 = 0.546	933.71
290.65 K, x1 = 0.573	914.236
290.65 K, x1 = 0.587	907.308
290.65 K, x1 = 0.615	891.207
290.66 K, x1 = 0.266	998.714
290.66 K, x1 = 0.3	994.016
290.66 K, x1 = 0.325	991.399
290.66 K, x1 = 0.338	989.957
290.75 K, x1 = 0.246	1007.05
290.75 K, x1 = 0.266	998.54
290.75 K, x1 = 0.275	995.309
290.75 K, x1 = 0.338	988.906
290.75 K, x1 = 0.363	984.963
290.75 K, x1 = 0.382	982.614
290.75 K, x1 = 0.407	979.022
290.75 K, x1 = 0.414	978.364
290.75 K, x1 = 0.486	960.473
290.75 K, x1 = 0.488	956.964
290.75 K, x1 = 0.546	931.465
290.75 K, x1 = 0.573	914.122
290.75 K, x1 = 0.587	904.315
290.75 K, x1 = 0.615	891.079
290.76 K, x1 = 0.3	992.118
290.76 K, x1 = 0.325	990.346
290.85 K, x1 = 0.246	1006.93
290.85 K, x1 = 0.275	994.946
290.85 K, x1 = 0.363	983.532
290.85 K, x1 = 0.382	981.337
290.85 K, x1 = 0.407	977.974
290.85 K, x1 = 0.486	958.566
290.85 K, x1 = 0.488	954.397
290.85 K, x1 = 0.546	930.124
290.85 K, x1 = 0.573	911.261
290.85 K, x1 = 0.587	900.983
290.86 K, x1 = 0.266	998.415
290.86 K, x1 = 0.3	990.332
290.86 K, x1 = 0.325	989.272
290.86 K, x1 = 0.338	987.682
